# Experimental data reported in patent US4594342A, “1,5-benzothiazepine derivative” (priority 1984, dated 1986).
# Counter-ions that a name gives are not always drawn.
# What was measured:
# rat platelets [1] = experiment: Inhibitory effect ex vivo on collagen-induced platelet aggregation of rat platelets after oral administration (Experiment 2); type: in vivo; conditions: 10 mg/kg orally, Sprague-Dawley rats fasted about 20 hours, blood 3 hours after administration
# Experimental: A test compound solution (Dose: 10 mg/kg) was orally administered to Sprague-Dawley rats fasted for about 20 hours. Three hours after administration, blood was collected from the abdominal aorta of the rats. […] The bottom layer was further centrifuged to give platelet-poor plasma ("PPP") as the supernatant solution. PRP was diluted with PPP so that the blood platelet counts were 0.8-1×10^6 /mm^3.
# Human platelets = experiment: Inhibitory effects in vitro on collagen-induced platelet aggregation of human platelets (Experiment 1); type: cell-based; conditions: human PRP, 37° C., read-out: IC50 (concentration of test compound required to induce 50% inhibition of collagen-induced platelet aggregation)
# Source text: (§1) (Inhibitory effects in vitro on collagen-induced platelet aggregation of rat or human platelets)
# (§2) The bottom layer was further centrifuged to give platelet-poor plasma ("PPP") as the supernatant solution. Platelet counts were adjusted to about 0.8-1×10^6 /mm^3 for rat PRP and about 4×10^5 /mm^3 for human PRP by dilution with PPP.
# Rat platelets [2] = experiment: Inhibitory effects in vitro on collagen-induced platelet aggregation of rat platelets (Experiment 1); type: cell-based; conditions: rat PRP, 37° C., read-out: IC50 (concentration of test compound required to induce 50% inhibition of collagen-induced platelet aggregation)
# Source text: as §1, §2
SMILES,Platelet aggregation-inhibiting activity (rat platelets [1]),IC50 (Human platelets) [µg/mL],IC50 (Rat platelets [2]) [µg/mL]
"CNCCN1C(=O)[C@H](O)[C@H](c2ccc(OC)cc2)Sc2cc(C)ccc21.Cl (racemic) [(±)-cis-2-(4-methoxyphenyl)-3-hydroxy-5-[2-(N-methylamino)ethyl]-8-methyl-2,3-dihydro-1,5-benzothiazepin-4(5H)-one hydrochloride]",++ ((++) if the percentage inhibition is not less than 50%),,
"CNCCN1C(=O)[C@H](O)[C@H](c2ccc(C)cc2)Sc2cc(C)ccc21 (relative stereo) [(±)-cis-2-(4-methylphenyl)-3-hydroxy-5-[2-(N--methylamino)ethyl]-8-methyl-2,3-dihydro-1,5-benzothiazepin-4(5H)--one hydrochloride]",++ ((++) if the percentage inhibition is not less than 50%),0.3,
"CNCCN1C(=O)[C@H](OC(C)=O)[C@H](c2ccc(OC)cc2)Sc2cc(C)ccc21.O=C(O)C(=O)O (single isomer, unassigned) [(-)-cis-2-(4-methoxyphenyl)-3-acetoxy-5-[2-(N-methylamino)ethyl]-8-methyl-2,3-dihydro-1,5-benzothiazepin-4(5H)-one oxalate]",++ ((++) if the percentage inhibition is not less than 50%),,
"CNCCN1C(=O)[C@H](O)[C@H](c2ccc(OC)cc2)Sc2cc(C)ccc21 (single isomer, unassigned) [(-)-cis-2-(4-methoxyphenyl)-3-hydroxy-5-[2-(N--methylamino)ethyl]-8-methyl-2,3-dihydro-1,5-benzothiazepin-4(5H)--one hydrobromide]",++ ((++) if the percentage inhibition is not less than 50%),,
"CNCCN1C(=O)[C@H](OC(C)=O)[C@H](c2ccc(OC)cc2)Sc2cc(C)ccc21 (relative stereo) [(±)-cis-2-(4-methoxyphenyl)-3-acetoxy-5-[2-(N-methylamino)ethyl]-8-methyl-2,3-dihydro-1,5-benzothiazepin-4(5H)-one hydrochloride. 1/2H2 O.1/2C2 H5 OH]",++ ((++) if the percentage inhibition is not less than 50%),,
"CNCCN1C(=O)[C@H](O)[C@H](c2ccc(OC)cc2)Sc2cc(O)ccc21 (relative stereo) [(±)-cis-2-(4-methoxyphenyl)-3,8-dihydroxy-5-[2-(N--methylamino)ethyl]-2,3-dihydro-1,5-benzothiazepin-4(5H)--one hydrochloride]",++ ((++) if the percentage inhibition is not less than 50%),,
"CNCCN1C(=O)[C@H](O)[C@H](c2ccc(C)cc2)Sc2cc(OC)ccc21 (relative stereo) [(±)-cis-2-(4-methylphenyl)-3-hydroxy-5-[2-(N--methylamino)ethyl]-8-methoxy-2,3-dihydro-1,5-benzothiazepin-4(5H)--one hydrochloride]",,0.5,0.3 to 1
"CNCCN1C(=O)[C@H](OC(C)=O)[C@H](c2ccc(C)cc2)Sc2cc(OC)ccc21 (relative stereo) [(±)-cis-2-(4-methylphenyl)-3-acetoxy-5-[2-(N--methylamino)ethyl]-8-methoxy-2,3-dihydro-1,5-benzothiazepin-4(5H)--one oxalate]",,0.5,
"CNCCN1C(=O)[C@H](OC(C)=O)[C@H](c2ccc(C)cc2)Sc2cc(C)ccc21 (relative stereo) [(±)-cis-2-(4-methylphenyl)-3-acetoxy-5-[2-(N--methylamino)ethyl]-8-methyl-2,3-dihydro-1,5-benzothiazepin-4(5H)--one hydrochloride]",++ ((++) if the percentage inhibition is not less than 50%),,0.5
"CNCCN1C(=O)[C@H](O)[C@H](c2ccc(C)cc2)Sc2cc(C)ccc21 (single isomer, unassigned) [(-)-cis-2-(4-methylphenyl)-3-hydroxy-5-[2-(N-methylamino)ethyl]-8-methyl-2,3-dihydro-1,5-benzothiazepin-4(5H)-one hydrochloride hemihydrate]",,0.003 to 0.03,0.1
"CNCCN1C(=O)[C@H](O)[C@H](c2ccc(C)cc2)Sc2cc(C)ccc21 (relative stereo) [(±)-cis-2-(4-methylphenyl)-3-hydroxy-5-[2-(N--methylamino)ethyl]-8-methyl-2,3-dihydro-1,5-benzothiazepin-4(5H)--one sulfate]",,,0.1 to 0.3
"Br.CNCCN1C(=O)[C@H](O)[C@H](c2ccc(C)cc2)Sc2ccccc21 (racemic) [(±)-cis-2-(4-methylphenyl)-3-hydroxy-5-[2-(N-methylamino)ethyl]-2,3-dihydro-1,5-benzothiazepin-4(5H)-one hydrobromide]",,0.3,
